In test [1] the target is T1, Son of sevenless homolog 1 (Homo sapiens, UniProt Q07889).
T1 sequence (Q07889 whole entry): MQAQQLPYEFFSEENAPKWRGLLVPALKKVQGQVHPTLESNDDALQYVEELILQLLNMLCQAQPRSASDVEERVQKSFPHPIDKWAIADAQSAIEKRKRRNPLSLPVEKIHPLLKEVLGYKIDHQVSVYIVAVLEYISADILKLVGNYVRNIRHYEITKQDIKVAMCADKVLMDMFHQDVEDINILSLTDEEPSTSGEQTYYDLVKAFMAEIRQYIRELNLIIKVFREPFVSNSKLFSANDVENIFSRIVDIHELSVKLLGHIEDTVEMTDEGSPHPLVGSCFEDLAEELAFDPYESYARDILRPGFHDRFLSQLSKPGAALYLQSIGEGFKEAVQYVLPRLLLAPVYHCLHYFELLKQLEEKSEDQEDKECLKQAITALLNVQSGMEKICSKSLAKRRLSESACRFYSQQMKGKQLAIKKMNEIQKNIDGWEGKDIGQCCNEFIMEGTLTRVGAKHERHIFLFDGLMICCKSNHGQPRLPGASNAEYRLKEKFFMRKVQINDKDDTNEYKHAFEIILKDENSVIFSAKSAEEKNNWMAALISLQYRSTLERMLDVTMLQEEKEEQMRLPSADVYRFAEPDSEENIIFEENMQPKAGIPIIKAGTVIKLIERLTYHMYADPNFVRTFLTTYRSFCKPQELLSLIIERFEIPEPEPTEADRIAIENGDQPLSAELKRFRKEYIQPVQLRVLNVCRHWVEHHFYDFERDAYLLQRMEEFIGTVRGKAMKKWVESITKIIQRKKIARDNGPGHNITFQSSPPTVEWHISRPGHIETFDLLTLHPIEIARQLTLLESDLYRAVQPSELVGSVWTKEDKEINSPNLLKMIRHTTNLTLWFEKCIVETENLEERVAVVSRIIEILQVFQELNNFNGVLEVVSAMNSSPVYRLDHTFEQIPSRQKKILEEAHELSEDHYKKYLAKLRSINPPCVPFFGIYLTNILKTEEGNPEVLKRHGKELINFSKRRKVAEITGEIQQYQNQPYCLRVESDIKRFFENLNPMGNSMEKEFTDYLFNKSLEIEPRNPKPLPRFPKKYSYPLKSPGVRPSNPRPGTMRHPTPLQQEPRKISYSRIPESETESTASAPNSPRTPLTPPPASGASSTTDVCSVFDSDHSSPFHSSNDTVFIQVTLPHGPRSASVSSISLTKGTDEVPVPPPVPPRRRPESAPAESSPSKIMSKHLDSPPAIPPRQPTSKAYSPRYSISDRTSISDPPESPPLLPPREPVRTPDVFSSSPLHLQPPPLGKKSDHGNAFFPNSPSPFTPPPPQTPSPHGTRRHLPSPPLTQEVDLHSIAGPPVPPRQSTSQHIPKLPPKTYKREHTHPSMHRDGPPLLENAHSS
Description: Inhibition of SOS1 in human MOLM-13 cells assessed as reduction in pERK level incubated for 60 mins by HTRF analysis. The class given is cell-based. (In general: TR-FRET usually uses a lanthanide donor and a delayed reading to cut background.)

The species entered for another test is Homo sapiens. Kind of test: Inhibition of N-terminal His10-tagged recombinant human KRAS G12C/C118S mutant (1 to 169 residues) expressed in Escherichia coli/Series S C1 sensor chip-immobilized biotinylated N-terminal His10-tagged wild-type recombinant human SOS1 catalytic domain (564 to 1049 residues) expressed in Escherichia coli protein-protein interaction at 10 uM measured for 360 secs by SPR analysis. The following applies: time 360.0 sec. Background: SPR reads the build-up and loss of mass on a sensor chip optically.

For test [2], the target named is T2, Serine/threonine-protein kinase 3 (Homo sapiens) (UniProt Q13188).
T2 sequence (whole entry): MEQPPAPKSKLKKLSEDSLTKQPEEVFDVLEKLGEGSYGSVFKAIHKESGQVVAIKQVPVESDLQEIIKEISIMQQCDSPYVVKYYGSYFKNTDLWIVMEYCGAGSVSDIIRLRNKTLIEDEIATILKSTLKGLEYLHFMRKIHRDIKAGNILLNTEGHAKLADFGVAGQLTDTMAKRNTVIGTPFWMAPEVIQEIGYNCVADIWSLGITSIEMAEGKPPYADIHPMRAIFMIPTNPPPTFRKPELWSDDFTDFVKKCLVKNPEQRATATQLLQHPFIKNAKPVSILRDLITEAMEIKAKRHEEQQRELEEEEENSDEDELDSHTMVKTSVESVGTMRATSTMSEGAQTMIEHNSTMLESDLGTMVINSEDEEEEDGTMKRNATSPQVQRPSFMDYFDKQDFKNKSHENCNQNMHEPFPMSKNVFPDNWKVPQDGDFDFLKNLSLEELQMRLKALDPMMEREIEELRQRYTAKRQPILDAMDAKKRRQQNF
Kind of test: Inhibition of MST2 (unknown origin) assessed as residual activity at 100 nM by KINOMEscan analysis relative to control.

Calls of active or inactive are those of the source. The rule behind the calls is not given here.

What is called IC50 is the concentration that gives 50% inhibition. For `COc1cc2nc(C)nc(NC(C)c3ccc(-c4cnc5n4CCC5)s3)c2cc1OC` (stereo not drawn), the IC50 in test [1] amounted to 450 nM.

As to `COc1cc2ncnc(N[C@H](C)c3cccc4ccccc34)c2cc1OC`, in the test filed under Homo sapiens, the result was Active. Besides, in test [2], the Activity was found to be 92%.

The values above are taken from ChEMBL document CHEMBL5678818, “Discovery of potent SOS1 inhibitors that block RAS activation via disruption of the RAS-SOS1 interaction” (Proc Natl Acad Sci U S A, 2019).
